Drawing on patent US11447481B2, “Microbiocidal oxadiazole derivatives” (SYNGENTA PARTICIPATIONS AG, priority 2017, dated 2022), this text covers pest or weed control, melting point and inhibition of growth for five compounds.

Data set [1] has as its system Phakopsora pachyrhizi. Description: Fungicidal activity against Phakopsora pachyrhizi / soybean / leaf disc preventative (Asian soybean rust). It counts as in vivo. The following applies: foliar, soybean leaf disks, compared to untreated control. The method, then: (§1) Leaf disks or leaf segments of various plant species are cut from plants grown in a greenhouse. The cut leaf disks or segments are placed in multiwell plates (24-well format) onto water agar. The leaf disks are sprayed with a test solution before (preventative) or after (curative) inoculation. Compounds to be tested are prepared as DMSO solutions (max. 10 mg/ml) which are diluted to the appropriate concentration with 0.025% Tween20 just before spraying. The inoculated leaf disks or segments are incubated under defined conditions (temperature, relative humidity, light, etc.) according to the respective test system. A single evaluation of disease level is carried out 3 to 14 days after inoculation, depending on the pathosystem. Percent disease control relative to the untreated check leaf disks or segments is then calculated.
Soybean leaf disks are placed on water agar in multiwell plates (24-well format) and sprayed with the formulated test compound diluted in water. One day after application leaf discs are inoculated by spraying a spore suspension on the lower leaf surface. After an incubation period in a climate cabinet of 24-36 hours in darkness at 20° C. and 75% rh leaf disc are kept at 20° C. with 12 h light/day and 75% rh. The activity of a compound is assessed as percent disease control compared to untreated when an appropriate level of disease damage appears in untreated check leaf disks (12-14 days after application).

Data set [2] deals with Puccinia recondita f. sp. tritici. The data set is described as follows: Fungicidal activity against Puccinia recondita f. sp. tritici / wheat / leaf disc curative (brown rust). It counts as in vivo. The following applies: foliar, 24 h, wheat leaf segments, curative (applied 1 day after inoculation), compared to untreated control. The method, then:
as §1
Wheat leaf segments cv. Kanzler are placed on agar in multiwell plates (24-well format). The leaf segments are inoculated with a spore suspension of the fungus. Plates are stored in darkness at 19° C. and 75% rh. The formulated test compound diluted in water is applied 1 day after inoculation. The leaf segments are incubated at 19° C. and 75% rh under a light regime of 12 h light/12 h darkness in a climate cabinet and the activity of a compound is assessed as percent disease control compared to untreated when an appropriate level of disease damage appears in untreated check leaf segments (6-8 days after application).

In data set [3] the test system is Glomerella lagenarium (Colletotrichum lagenarium). The data set is described as follows: Fungicidal activity against Glomerella lagenarium (Colletotrichum lagenarium) liquid culture / cucumber / preventative (anthracnose). Type of data set: cell-based. The following applies: Colletotrichum orbiculare, liquid culture (PDB), growth inhibition measured photometrically 3-4 days after application, compared to untreated control. Here is the method: Mycelia fragments or conidia suspensions of a fungus prepared either freshly from liquid cultures of the fungus or from cryogenic storage, are directly mixed into nutrient broth. DMSO solutions of the test compound (max. 10 mg/ml) are diluted with 0.025% Tween20 by a factor of 50 and 10 µl of this solution is pipetted into a microtiter plate (96-well format). The nutrient broth containing the fungal spores/mycelia fragments is then added to give an end concentration of the tested compound. The test plates are incubated in the dark at 24° C. and 96% relative humidity. The inhibition of fungal growth is determined photometrically after 2 to 7 days, depending on the pathosystem, and percent antifungal activity relative to the untreated check is calculated.
Conidia of the fungus from cryogenic storage are directly mixed into nutrient broth (PDB potato dextrose broth). After placing a (DMSO) solution of test compound into a microtiter plate (96-well format), the nutrient broth containing the fungal spores is added. The test plates are incubated at 24° C. and the inhibition of growth is measured photometrically 3-4 days after application.

Data set [4] relates to Puccinia recondita f. sp. tritici. The data set is described as follows: Fungicidal activity against Puccinia recondita f. sp. tritici / wheat / leaf disc preventative (brown rust). Type of data set: in vivo. The conditions noted are these: foliar, wheat leaf segments, preventative (inoculated 1 day after application), compared to untreated control. The method, then:
as §1
Wheat leaf segments cv. Kanzler are placed on agar in multiwell plates (24-well format) and sprayed with the formulated test compound diluted in water. The leaf disks are inoculated with a spore suspension of the fungus 1 day after application. The inoculated leaf segments are incubated at 19° C. and 75% rh under a light regime of 12 h light/12 h darkness in a climate cabinet and the activity of a compound is assessed as percent disease control compared to untreated when an appropriate level of disease damage appears in untreated check leaf segments (7-9 days after application).

The structures appear in SMILES notation.

Take `COc1nn(Cc2ccc(-c3noc(C(F)(F)F)n3)cc2)c(=O)n1C` [Compound B-4, 5-methoxy-4-methyl-2-[[4-[5-(trifluoromethyl)-1,2,4-oxadiazol-3-yl]phenyl]methyl]-1,2,4-triazol-3-one]: the melting point (as a rule, the temperature of the solid-liquid transition) was 129 to 130.8 °C. In data set [1], the pest or weed control (as a rule, the degree to which the test organism was suppressed or injured, in per cent) at 200 ppm was at least 80%. For the same compound, the pest or weed control at 200 ppm in data set [2] is at least 80%. For the same compound, the inhibition of growth (commonly the relative decrease from the control value, in per cent) at 20 ppm in data set [3] was at least 80%. Moreover, in data set [4], the pest or weed control at 200 ppm was at least 80%.
`O=c1ccc(C(F)(F)F)cn1Cc1ccc(-c2noc(C(F)(F)F)n2)cc1` [Compound C-9, 5-(trifluoromethyl)-1-[[4-[5-(trifluoromethyl)-1,2,4-oxadiazol-3-yl]phenyl]methyl]pyridin-2-one] returned a melting point of 131 to 133 °C. Further, the pest or weed control at 200 ppm in data set [1] was at least 80%. The pest or weed control at 200 ppm in data set [2] was at least 80%. In addition, in data set [3], the inhibition of growth at 20 ppm is at least 80%. Moreover, the pest or weed control at 200 ppm in data set [4] was at least 80%.
With `O=c1ccc(F)cn1Cc1ccc(-c2noc(C(F)(F)F)n2)cc1` [Compound C-6, 5-fluoro-1-[[4-[5-(trifluoromethyl)-1,2,4-oxadiazol-3-yl]phenyl]methyl]pyridin-2-one], the melting point fell in the range of 125 to 126 °C. In addition, in data set [1], the pest or weed control at 200 ppm is at least 80%. The compound further returned a pest or weed control at 200 ppm in data set [2] of at least 80%. The compound also had an inhibition of growth at 20 ppm in data set [3] of at least 80%. In addition, in data set [4], the pest or weed control at 200 ppm is at least 80%.
Take `Cn1nnn(CCc2ccc(-c3noc(C(F)(F)F)n3)cc2)c1=O` [Compound D-1, 1-methyl-4-[2-[4-[5-(trifluoromethyl)-1,2,4-oxadiazol-3-yl]phenyl]ethyl]tetrazol-5-one]: the melting point is 92 to 94 °C. Besides, the pest or weed control at 200 ppm in data set [1] is at least 80%. Also, the pest or weed control at 200 ppm in data set [2] is at least 80%. The inhibition of growth at 20 ppm in data set [3] was at least 80%. Also, in data set [4], the pest or weed control at 200 ppm was at least 80%.
`O=c1ccccn1Cc1ccc(-c2noc(C(F)(F)F)n2)cc1` [Compound C-14, 1-[[4-[5-(trifluoromethyl)-1,2,4-oxadiazol-3-yl]phenyl]methyl]pyridin-2-one] showed a melting point of 142 to 144 °C. The compound also yielded a pest or weed control at 200 ppm in data set [1] of at least 80%. In data set [2], this compound had a pest or weed control at 200 ppm of at least 80%. Moreover, the inhibition of growth at 20 ppm in data set [3] is at least 80%. Besides, the pest or weed control at 200 ppm in data set [4] was at least 80%.
